Test results reported in the NIST ThermoML archive (doi:10.1016/j.fluid.2011.06.007).

Assay: xn = mol fraction of the nth substance listed
Details: Liquid; for mass density: 298.15 K, 101.3 kPa, Vibrating tube method; for interfacial tension: 303.15 K, maximum differential bubble pressure

CCCCCC [hexane] + CCC(C)(C)OC
x1 = 1
Details	interfacial tension [mN/m]	mass density [kg/m3]
–	17.4	655.19

CCC(C)(C)OC [2-methoxy-2-methylbutane] + CCCCCC
Details	interfacial tension [mN/m]	mass density [kg/m3]
x2 = 0	22	765.8
x2 = 0.038	–	761.49
x2 = 0.051	21.6	–
x2 = 0.092	–	755.29
x2 = 0.1	21.06	–
x2 = 0.145	–	749.34
x2 = 0.194	–	743.82
x2 = 0.209	20.64	–
x2 = 0.247	–	737.76
x2 = 0.305	20.12	–
x2 = 0.346	–	726.73
x2 = 0.399	19.8	–
x2 = 0.443	–	715.93
x2 = 0.497	–	709.95
x2 = 0.506	19.12	–
x2 = 0.552	–	703.83
x2 = 0.597	–	698.92
x2 = 0.611	18.71	–
x2 = 0.644	–	693.78
x2 = 0.696	–	688.15
x2 = 0.714	18.34	–
x2 = 0.745	–	682.72
x2 = 0.795	–	677.33
x2 = 0.813	18.02	–
x2 = 0.852	–	671.14
x2 = 0.901	–	665.86
x2 = 0.914	17.66	–
x2 = 0.952	–	660.3
x2 = 0.96	17.55	–
